# Measured values published in patent US11419843B2, “Small molecule BCL-2 functional converters as cancer therapeutics” (Oregon State University, priority 2016, dated 2022).
# Tested on: paclitaxel resistant H460 cells
# Test: Zebrafish xenograft model
# Assay type: in vivo, Zebrafish (Danio rerio)
# Details: 1 to 4 days post injection
# Method: Total area signifies total h460 cell area in zebrafish.
# Zebrafish (Danio rerio) were housed at the Sinnhuber Aquatic Research Laboratory at Oregon State University in accordance with Institutional Animal Care and Use Committee protocols. Adult 5D Tropical zebrafish were maintained under standard laboratory conditions of 28±1° C. on a 14 hr light/10 hr dark photoperiod in fish water consisting of reverse osmosis water supplemented with a commercially available salt solution (0.6%, Instant Ocean, UnitedPet Group, Inc., Blacksburg, Va., USA). Collected eggs were staged according to Kimmel et al. At 24 hours post fertilization (hpf), zebrafish embryos were maintained in E3 media with phenylthiourea (0.003%, Sigma, USA).
# For transplantations, H460 cells were labeled with a CM-DiI dye (Thermo Fisher Sci.) according to the manufacturer's protocol and suspended to a concentration of 2×10^7 cells/mL. […]
# For imaging, zebrafish xenografts were anesthetized by emersion in 0.2 mg/mL Tricaine E3 media and imbedded in 0.8% (w/v) low melting point agarose on a glass bottom 96-well plate. […] H460 cancer growth was analyzed using Fiji (Fiji is Just Imagej) software. […] Cancer area was calculated by creating a binary mask from thresholds with the Otsu algorithm and calculating the total area of the resulting segmented objects. […]
compound,measurement,value
"CN(Cc1cnc2nc(N)nc(N)c2n1)c1ccc(C(=O)N[C@@H](CCC(=O)O)C(=O)O)cc1 [MTX, (2S)-2-[[4-[(2,4 diaminopteridin-6-yl)methylmethylamino]benzoyl]amino] pentanedioc acid]",Growth of paclitaxel resistant H460 cells in zebrafish,reduction in paclitaxel resistant H460 growth in vivo
